Experiments:
hENT1 [1] = target: T1, hENT1 (Homo sapiens, UniProt Q99808); test: biochemical
T1 sequence (Q99808 1-456): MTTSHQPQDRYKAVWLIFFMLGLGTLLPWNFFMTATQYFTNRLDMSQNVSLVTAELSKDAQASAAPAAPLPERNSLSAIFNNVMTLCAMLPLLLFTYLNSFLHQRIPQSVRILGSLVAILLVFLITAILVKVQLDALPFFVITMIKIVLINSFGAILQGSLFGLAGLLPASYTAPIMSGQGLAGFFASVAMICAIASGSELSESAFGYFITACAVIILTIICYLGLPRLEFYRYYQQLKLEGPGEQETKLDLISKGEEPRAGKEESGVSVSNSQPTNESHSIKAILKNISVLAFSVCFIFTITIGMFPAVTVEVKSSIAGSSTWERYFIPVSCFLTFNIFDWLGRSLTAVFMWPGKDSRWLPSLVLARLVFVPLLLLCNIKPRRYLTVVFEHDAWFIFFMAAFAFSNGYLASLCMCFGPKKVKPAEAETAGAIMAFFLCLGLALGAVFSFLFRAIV

hENT1 [2] = target: T1, hENT1; test: [3H]NBTI radioligand displacement assay; conditions: Ki relative to compound 1
hENT1 [3] = target: T1, hENT1; test: [3H]NBTI competition association assay (Motulsky and Mahan); conditions: 10 °C; for RT (residence time): RT = 1/koff; for koff / kon: human erythrocyte membranes, competitor at IC50 concentration, mean ± SEM
hENT1 [4] = target: T1, hENT1; test: Washout assay with [3H]NBTI binding after four wash cycles; parameters: For our experiments, we used human erythrocytes as a source of hENT1; from tissue; host or cells: human erythrocytes (membrane preparation); conditions: 10 °C; for inhibitor washed away (recovery of [3H]NBTI binding): 1 h pre-incubation at 10 × IC50, four wash and centrifugation cycles, erythrocyte membranes
Procedure: Centrifugation at 13,200 rpm (16,100 × g) at 4 °C for 5 min separated pellet and supernatant, with the latter containing the unbound ligand being removed. Pellets were resuspended in 1 mL of assay buffer, and samples were incubated for 10 min at 10 °C. In total, four centrifugation-washing cycles were performed. […] Rapid filtration through GF/C filters using a Brandel harvester (Brandel, Gaithersburg, MD) terminated the experiment. Filters were washed three times using ice-cold wash buffer and the samples were counted by scintillation spectrometry using a Tri-carb 2900 TR liquid scintillation counter (Perkin Elmer, Boston, MA).
A washout assay was used to validate the findings in the competition association assays (Fig. 2C). […] The unwashed condition was also similarly assessed, but no wash and centrifugation cycle occurred before the determination of radioligand binding. The results of both washed and unwashed samples were compared to the control condition without any competitor (100% washed and unwashed radioligand binding, respectively).

hENT1 [5] = target: T1, hENT1; parameters: For our experiments, we used human erythrocytes as a source of hENT1; from tissue; host or cells: human erythrocytes (membrane preparation); method as in PMID 31830468; conditions: earlier study, same experimental protocol; cited from earlier work

Row | Ki (hENT1 [1]) [nM] | increase in affinity compared to 1 (hENT1 [2]) | RT (residence time) (hENT1 [3]) [min] | koff (hENT1 [3]) [s⁻¹] | kon (hENT1 [3]) [M⁻¹ s⁻¹] | inhibitor washed away (recovery of [3H]NBTI binding) (hENT1 [4]) | inhibitor still bound to the target (hENT1 [4]; after four extensive washing steps, 10 × IC50 pre-incubation) | SMILES | RT (hENT1 [5]) [min]
1 | 145 |  |  |  |  |  |  | Nc1cc2c(cc1Cl)C(=O)NC1(CCN(CCNC(=O)c3c(Cl)cccc3Cl)CC1)O2 [Compound 1] | 
2 |  | approximately 30 fold | 4.9 ± 1.1 | 0.00338 ± 0.000783 | 2.05e+06 ± 483000 |  |  | CNc1cc2c(cc1Cl)C(=O)NC1(CCN(CCNC(=O)c3c(Cl)cccc3Cl)CC1)O2 [Compound 2] | 
3 |  | approximately 30 fold | 6.6 ± 0.9 | 0.00252 ± 0.000333 | 2.63e+06 ± 800000 |  |  | CN(C)c1cc2c(cc1Cl)C(=O)NC1(CCN(CCNC(=O)c3c(Cl)cccc3Cl)CC1)O2 [Compound 3] | 
4 |  |  | 2.6 ± 0.7 | 0.00643 ± 0.00178 | 200000 ± 100000 |  |  | CC(=O)Nc1cc2c(cc1Cl)C(=O)NC1(CCN(CCNC(=O)c3c(Cl)cccc3Cl)CC1)O2 [Compound 4] | 
5 |  |  | 21 ± 1.4 | 0.0008 ± 5e-05 | 1.68e+06 ± 583000 |  |  | O=C1NC2(CCN(CCNC(=O)c3c(Cl)cccc3Cl)CC2)Oc2cc(NC3CCCC3)c(Cl)cc21 [Compound 6] | 
6 |  |  | 16 ± 3.3 | 0.00107 ± 0.000233 | 667000 ± 100000 |  |  | O=C1NC2(CCN(CCNC(=O)c3c(Cl)cccc3Cl)CC2)Oc2cc(N3CCOCC3)c(Cl)cc21 [Compound 11] | 
7 |  |  | 2.9 ± 0.2 | 0.00583 ± 0.000433 | 633000 ± 67000 |  |  | O=C1NC2(CCN(CCNC(=O)c3c(Cl)cccc3Cl)CC2)Oc2cc(N3CCNCC3)c(Cl)cc21 [Compound 12] | 
8 |  |  | 11 ± 0.5 | 0.00148 ± 6.7e-05 | 450000 ± 67000 |  |  | CN1CCN(c2cc3c(cc2Cl)C(=O)NC2(CCN(CCNC(=O)c4c(Cl)cccc4Cl)CC2)O3)CC1 [Compound 13] | 
9 |  |  | 38 ± 14 | 0.00045 ± 0.000167 | 333000 ± 17000 |  |  | CC(C)(C)OC(=O)N1CCN(c2cc3c(cc2Cl)C(=O)NC2(CCN(CCNC(=O)c4c(Cl)cccc4Cl)CC2)O3)CC1 [Compound 14] | 
10 |  |  | 10 ± 0.7 | 0.00167 ± 0.00012 | 550000 ± 130000 |  |  | O=C1NC2(CCN(CCNC(=O)c3c(Cl)cccc3Cl)CC2)Oc2cc(NC3CCOCC3)c(Cl)cc21 [Compound 15] | 
11 |  |  | 1.9 ± 0.1 | 0.00892 ± 0.000517 | 367000 ± 33000 |  |  | CN1CCC(Nc2cc3c(cc2Cl)C(=O)NC2(CCN(CCNC(=O)c4c(Cl)cccc4Cl)CC2)O3)CC1 [Compound 17] | 
12 | 1040 |  |  |  |  |  |  | O=C1NC2(CCN(CCNC(=O)c3c(Cl)cccc3Cl)CC2)Oc2cc(O)c(Cl)cc21 [Compound 20] | 
13 |  |  | 18 ± 3.6 | 0.000933 ± 0.000183 | 2.17e+06 ± 850000 |  |  | CC(C)Oc1cc2c(cc1Cl)C(=O)NC1(CCN(CCNC(=O)c3c(Cl)cccc3Cl)CC1)O2 [Compound 21] | 
14 |  |  | 35 ± 7.6 | 0.000483 ± 0.0001 | 483000 ± 120000 |  |  | O=C1NC2(CCN(CCNC(=O)c3c(Cl)cccc3Cl)CC2)Oc2cc(OC3CCCC3)c(Cl)cc21 [Compound 22] | 
15 |  |  |  | 0.0069 ± 0.00142 | 2.12e+06 ± 333000 |  |  | CN1CCC(Oc2cc3c(cc2Cl)C(=O)NC2(CCN(CCNC(=O)c4c(Cl)cccc4Cl)CC2)O3)CC1 [Compound 24] | 

Second part, the molecule before the results:

Row | SMILES | Ki (hENT1 [1]) [nM] | increase in affinity compared to 1 (hENT1 [2]) | RT (residence time) (hENT1 [3]) [min] | koff (hENT1 [3]) [s⁻¹] | kon (hENT1 [3]) [M⁻¹ s⁻¹] | inhibitor washed away (recovery of [3H]NBTI binding) (hENT1 [4]) | inhibitor still bound to the target (hENT1 [4]; after four extensive washing steps, 10 × IC50 pre-incubation) | RT (hENT1 [5]) [min]
16 | COCNc1cc2c(cc1Cl)C(=O)NC1(CCN(CCNC(=O)c3c(Cl)cccc3Cl)CC1)O2 [Compound 5] |  |  | 5.4 ± 0.7 | 0.00308 ± 0.000383 | 600000 ± 100000 |  |  | 
17 | CNCCCNc1cc2c(cc1Cl)C(=O)NC1(CCN(CCNC(=O)c3c(Cl)cccc3Cl)CC1)O2 [Compound 8] |  |  | 3.4 ± 0.6 | 0.00493 ± 0.000833 | 183000 ± 67000 |  |  | 
18 | CC(=O)NCCCNc1cc2c(cc1Cl)C(=O)NC1(CCN(CCNC(=O)c3c(Cl)cccc3Cl)CC1)O2 [Compound 9] |  |  | 10 ± 0.9 | 0.0016 ± 0.00013 | 417000 ± 83000 |  |  | 
19 | CN(CCCNc1cc2c(cc1Cl)C(=O)NC1(CCN(CCNC(=O)c3c(Cl)cccc3Cl)CC1)O2)C(=O)OC(C)(C)C [Compound 10] |  |  | 26 ± 2.0 | 0.000633 ± 5e-05 | 550000 ± 50000 |  |  | 
20 | O=C1NC2(CCN(CCNC(=O)c3c(Cl)cccc3Cl)CC2)Oc2cc(NC3CCNCC3)c(Cl)cc21 [Compound 16] |  |  | 2.2 ± 0.4 | 0.00773 ± 0.00153 | 267000 ± 33000 |  |  | 
21 | CC(=O)N1CCC(Nc2cc3c(cc2Cl)C(=O)NC2(CCN(CCNC(=O)c4c(Cl)cccc4Cl)CC2)O3)CC1 [Compound 18] |  |  | 26 ± 6.5 | 0.000633 ± 0.00015 | 433000 ± 50000 | approximately 60% |  | 
22 | CC(C)(C)OC(=O)N1CCC(Nc2cc3c(cc2Cl)C(=O)NC2(CCN(CCNC(=O)c4c(Cl)cccc4Cl)CC2)O3)CC1 [Compound 19] |  |  | 34 ± 9.7 | 0.0005 ± 0.00015 | 317000 ± 17000 |  |  | 
23 | O=C1NC2(CCN(CCNC(=O)c3c(Cl)cccc3Cl)CC2)Oc2cc(OC3CCNCC3)c(Cl)cc21 [Compound 23] |  |  |  | 0.0034 ± 0.00085 | 2.03e+06 ± 667000 | completely washed away |  | 
24 | CC(=O)N1CCC(Oc2cc3c(cc2Cl)C(=O)NC2(CCN(CCNC(=O)c4c(Cl)cccc4Cl)CC2)O3)CC1 [Compound 25] |  |  | 72 ± 14 | 0.000233 ± 5e-05 | 533000 ± 67000 | 37% | more than 60% | 
25 | CC(=O)N1CCC(Oc2cc3c(cc2Cl)C(=O)CC2(CCN(CCNC(=O)c4c(Cl)cccc4Cl)CC2)O3)CC1 [Compound 26] |  |  | 66 ± 20 | 0.00025 ± 8.3e-05 | 717000 ± 130000 |  |  | 
26 | CC(=O)N1CCC(Oc2cc3c(cc2Cl)C(O)CC2(CCN(CCNC(=O)c4c(Cl)cccc4Cl)CC2)O3)CC1 (centres unmarked) [Compound 27] |  |  | 79 ± 20 | 0.000217 ± 5e-05 | 900000 ± 250000 |  |  | 
27 | CC(=O)N1CCC(Oc2cc3c(cc2Cl)C=CC2(CCN(CCNC(=O)c4c(Cl)cccc4Cl)CC2)O3)CC1 [Compound 28] |  |  | 87 ± 8.7 | 0.000183 ± 1.7e-05 | 1.62e+06 ± 120000 |  |  | 
28 | CC(=O)N1CCC(Oc2cc3c(cc2Cl)CCC2(CCN(CCNC(=O)c4c(Cl)cccc4Cl)CC2)O3)CC1 [Compound 29] |  |  | 52 ± 20 | 0.000317 ± 0.00012 | 1.58e+06 ± 333000 |  |  | 
29 | NC(=O)C1CN(CCCCC(c2ccc(F)cc2)c2ccc(F)cc2)CCN1CC(=O)Nc1c(Cl)cc(N)cc1Cl (centres unmarked) [Draflazine] |  |  |  |  |  |  |  | 88
30 | COc1cc(C(=O)OCCCN2CCCN(CCCOC(=O)c3cc(OC)c(OC)c(OC)c3)CC2)cc(OC)c1OC [dilazep] |  |  |  |  |  |  |  | 44
